Source: patent publication US10793564B2, “Amino acid compounds and methods of use” (Pliant Therapeutics, Inc., priority 2018, dated 2020)

Target: recombinant human integrin αVβ6 (Homo sapiens (Human), UniProt P06756+P18564)
Assay: Solid phase integrin αVβ6 binding assay
Settings: inhibition of recombinant TGFβ1 LAP binding to coated integrin, IC50 presented in four ranges, read-out: αvβ6 Inhibition IC50 (nM) - range
Experimental: (§1) Microplates were coated with recombinant human integrin αVβ6 (2 μg/mL) in PBS (100 μL/well 25° C., overnight). The coating solution was removed, washed with wash buffer (0.05% Tween 20; 0.5 mM MnCl2; in 1×TBS). The plate was blocked with 200 μL/well of Block Buffer (1% BSA; 5% sucrose; 0.5 mM MnCl2; in 1×TBS) at 37° C. for 2 h. Dilutions of testing compounds and recombinant TGFβ1 LAP (0.67 μg/mL) in binding buffer (0.05% BSA; 2.5% sucrose; 0.5 mM MnCl2; in 1×TBS) were added. The plate was incubated for 2 hours at 25° C., washed, and incubated for 1 hour with Biotin-Anti-hLAP. Bound antibody was detected by peroxidase-conjugated streptavidin. The IC50 values for testing compounds were calculated by a four-parameter logistic regression.
The compounds tested were compound samples prepared according to procedures described in the Synthetic Examples section, with the stereochemical purity as indicated in the Examples.
as §1, with “A third series of exemplary compounds was selected for testing in the solid phase integrin αVβ6 binding assay. The compounds tested were compound samples prepared according to procedures described in the Synthetic Examples section, with the stereochemical purity as indicated in the Examples. As in Example B1, microplates were” for “Microplates were”, “(0.67 g/mL)” for “(0.67 μg/mL)”

Sequence of recombinant human integrin αVβ6 (P06756 31-992): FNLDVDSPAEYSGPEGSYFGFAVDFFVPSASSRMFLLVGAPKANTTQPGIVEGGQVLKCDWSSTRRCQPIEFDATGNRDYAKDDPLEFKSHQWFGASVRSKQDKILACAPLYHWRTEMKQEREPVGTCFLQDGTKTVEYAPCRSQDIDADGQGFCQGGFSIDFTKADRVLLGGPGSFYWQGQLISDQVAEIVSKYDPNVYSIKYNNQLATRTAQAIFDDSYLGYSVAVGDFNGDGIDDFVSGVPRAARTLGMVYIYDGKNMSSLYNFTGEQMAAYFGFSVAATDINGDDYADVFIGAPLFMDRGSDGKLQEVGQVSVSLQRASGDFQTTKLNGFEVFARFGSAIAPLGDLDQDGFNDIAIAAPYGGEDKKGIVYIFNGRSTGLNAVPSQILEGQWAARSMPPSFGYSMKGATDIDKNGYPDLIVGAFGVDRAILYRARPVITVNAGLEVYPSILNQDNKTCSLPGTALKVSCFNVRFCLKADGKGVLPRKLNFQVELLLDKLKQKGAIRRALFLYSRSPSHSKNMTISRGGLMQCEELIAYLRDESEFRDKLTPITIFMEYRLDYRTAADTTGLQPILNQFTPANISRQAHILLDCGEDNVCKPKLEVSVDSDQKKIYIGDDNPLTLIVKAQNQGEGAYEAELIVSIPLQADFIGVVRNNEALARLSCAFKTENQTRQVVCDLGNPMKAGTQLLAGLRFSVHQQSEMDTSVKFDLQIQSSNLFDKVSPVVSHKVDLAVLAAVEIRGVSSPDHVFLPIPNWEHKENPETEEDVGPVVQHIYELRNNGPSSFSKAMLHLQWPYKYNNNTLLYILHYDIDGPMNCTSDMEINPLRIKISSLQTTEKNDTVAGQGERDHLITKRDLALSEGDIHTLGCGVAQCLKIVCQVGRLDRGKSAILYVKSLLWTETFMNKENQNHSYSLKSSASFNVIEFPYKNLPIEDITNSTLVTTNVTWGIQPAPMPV
Sequence of recombinant human integrin αVβ6 (P18564 22-707): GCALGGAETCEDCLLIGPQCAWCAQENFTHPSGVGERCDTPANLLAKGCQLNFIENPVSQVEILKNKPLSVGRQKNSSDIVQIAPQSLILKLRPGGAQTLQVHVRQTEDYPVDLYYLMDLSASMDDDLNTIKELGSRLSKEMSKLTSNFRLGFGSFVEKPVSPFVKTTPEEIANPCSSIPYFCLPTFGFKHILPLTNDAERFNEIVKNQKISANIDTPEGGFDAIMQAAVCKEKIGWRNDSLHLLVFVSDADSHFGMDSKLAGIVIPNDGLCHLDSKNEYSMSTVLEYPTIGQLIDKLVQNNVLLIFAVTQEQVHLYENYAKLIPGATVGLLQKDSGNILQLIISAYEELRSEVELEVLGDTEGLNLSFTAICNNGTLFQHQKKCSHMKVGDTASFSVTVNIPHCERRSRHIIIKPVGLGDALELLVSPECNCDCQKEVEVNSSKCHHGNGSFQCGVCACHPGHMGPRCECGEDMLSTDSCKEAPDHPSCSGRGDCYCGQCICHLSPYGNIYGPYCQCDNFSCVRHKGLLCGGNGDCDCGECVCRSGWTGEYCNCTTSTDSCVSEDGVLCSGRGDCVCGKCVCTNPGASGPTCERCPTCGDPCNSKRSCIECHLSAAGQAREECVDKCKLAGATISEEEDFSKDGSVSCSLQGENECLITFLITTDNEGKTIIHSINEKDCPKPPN

| Compound | IC50 [nM] |
| --- | --- |
| COCCN(CCCCc1ccc2c(n1)NCCC2)CC[C@H](Nc1ncnc2cccnc12)C(=O)O [Compound 16, (S)-4-((2-methoxyethyl) (4-(5,6,7,8-tetrahydro-1,8-naphthyridin-2-yl)butyl)amino)-2-(pyrido[3,2-d]pyrimidin-4-ylamino) butanoic Acid] | < 50 |
| CN(C)C(=O)CN(CCCCc1ccc2c(n1)NCCC2)CC[C@H](Nc1ncnc2ccccc12)C(=O)O [Compound 64, (S)-4-((2-(dimethylamino)-2-oxoethyl) (4-(5,6,7,8-tetrahydro-1,8-naphthyridin-2-yl)butyl)amino)-2-(quinazolin-4-ylamino) butanoic Acid] | < 50 |
| COCCN(CCCCc1ccc2c(n1)NCCC2)CC[C@H](Nc1ncnc2cc(Cl)ccc12)C(=O)O [Compound 37, (S)-2-((7-chloroquinazolin-4-yl)amino)-4-((2-methoxyethyl) (4-(5,6,7,8-tetrahydro-1,8-naphthyridin-2-yl)butyl)amino) butanoic Acid] | 50 to 250 |
| COCCN(CCCCc1ccc2c(n1)NCCC2)CC[C@H](Nc1cc(C(F)(F)F)nc(C)n1)C(=O)O [Compound 22, (S)-4-((2-methoxyethyl) (4-(5,6,7,8-tetrahydro-1,8-naphthyridin-2-yl)butyl)amino)-2-((2-methyl-6-(trifluoromethyl)pyrimidin-4-yl)amino) butanoic Acid] | < 50 |
| CO[C@H](C)CN(CCCCc1ccc2c(n1)NCCC2)CC[C@H](Nc1ncnc2cn[nH]c12)C(=O)O [Compound 79, (S)-2-((1H-pyrazolo[4,3-d]pyrimidin-7-yl)amino)-4-(((R)-2-methoxypropyl) (4-(5,6,7,8-tetrahydro-1,8-naphthyridin-2-yl)butyl)amino) butanoic Acid] | < 50 |
| CO[C@H](C)CN(CCCCc1ccc2c(n1)NCCC2)CC[C@H](Nc1ncnc2ccccc12)C(=O)O [Compound 62, (S)-4-(((R)-2-methoxypropyl) (4-(5,6,7,8-tetrahydro-1,8-naphthyridin-2-yl)butyl)amino)-2-(quinazolin-4-ylamino) butanoic Acid] | < 50 |
| COCCN(CCCCc1ccc2c(n1)NCCC2)CC[C@H](Nc1ncnc2ccc(F)cc12)C(=O)O [Compound 19, (S)-2-((6-fluoroquinazolin-4-yl)amino)-4-((2-methoxyethyl) (4-(5,6,7,8-tetrahydro-1,8-naphthyridin-2-yl)butyl)amino) butanoic Acid] | < 50 |
| CO[C@H](C)CN(CCCCc1ccc2c(n1)NCCC2)CC[C@H](Nc1ncc(F)cn1)C(=O)O [Compound 78, (S)-2-((5-fluoropyrimidin-2-yl)amino)-4-(((R)-2-methoxypropyl) (4-(5,6,7,8-tetrahydro-1,8-naphthyridin-2-yl)butyl)amino) butanoic Acid] | < 50 |
| CO[C@H](C)CN(CCCCc1ccc2c(n1)NCCC2)CC[C@H](Nc1cc(-c2ccccc2)ncn1)C(=O)O [Compound 80, (S)-4-(((R)-2-methoxypropyl) (4-(5,6,7,8-tetrahydro-1,8-naphthyridin-2-yl)butyl)amino)-2-((6-phenylpyrimidin-4-yl)amino) butanoic Acid] | < 50 |
| Cc1nc(N[C@@H](CCN(CCCCc2ccc3c(n2)NCCC3)CCOc2cccnc2C)C(=O)O)c2ccc(F)cc2n1 [Compound 53, (S)-2-((7-fluoro-2-methylquinazolin-4-yl)amino)-4-((2-((2-methylpyridin-3-yl)oxy)ethyl) (4-(5,6,7,8-tetrahydro-1,8-naphthyridin-2-yl)butyl)amino) butanoic Acid] | < 50 |
| Cc1ccc(OCCN(CCCCc2ccc3c(n2)NCCC3)CC[C@H](Nc2ncnc3cccnc23)C(=O)O)cn1 [Compound 57, (S)-4-((2-((6-methylpyridin-3-yl)oxy)ethyl) (4-(5,6,7,8-tetrahydro-1,8-naphthyridin-2-yl)butyl)amino)-2-(pyrido[3,2-d]pyrimidin-4-ylamino) butanoic Acid] | < 50 |
| CCOCCN(CCCCc1ccc2c(n1)NCCC2)CC[C@H](Nc1ncnc2ccccc12)C(=O)O [Compound 55, (S)-4-((2-ethoxyethyl) (4-(5,6,7,8-tetrahydro-1,8-naphthyridin-2-yl)butyl)amino)-2-(quinazolin-4-ylamino) butanoic Acid] | < 50 |
| COCCN(CCCCc1ccc2c(n1)NCCC2)CC[C@H](Nc1ncnc2c(F)cccc12)C(=O)O [Compound 20, (S)-2-((8-fluoroquinazolin-4-yl)amino)-4-((2-methoxyethyl) (4-(5,6,7,8-tetrahydro-1,8-naphthyridin-2-yl)butyl)amino) butanoic Acid] | < 50 |
| Cc1ncccc1OCCN(CCCCc1ccc2c(n1)NCCC2)CC[C@H](Nc1ncnc2cccnc12)C(=O)O [Compound 54, (S)-4-((2-((2-methylpyridin-3-yl)oxy)ethyl) (4-(5,6,7,8-tetrahydro-1,8-naphthyridin-2-yl)butyl)amino)-2-(pyrido[3,2-d]pyrimidin-4-ylamino) butanoic Acid] | < 50 |
| COC[C@@H](F)CN(CCCCc1ccc2c(n1)NCCC2)CC[C@H](Nc1nc(C)nc2ccccc12)C(=O)O [Compound 46, (S)-4-(((S)-2-fluoro-3-methoxypropyl) (4-(5,6,7,8-tetrahydro-1,8-naphthyridin-2-yl)butyl)amino)-2-((2-methylquinazolin-4-yl)amino) butanoic Acid] | < 50 |

The remaining lines, values ahead:

| IC50 [nM] | Compound |
| --- | --- |
| 250 to 1000 | COC[C@@H](F)CN(CCCCc1ccc2c(n1)NCCC2)CC[C@H](Nc1ccnc(C(F)(F)F)n1)C(=O)O [Compound 87, (S)-4-(((S)-2-fluoro-3-methoxypropyl) (4-(5,6,7,8-tetrahydro-1,8-naphthyridin-2-yl)butyl)amino)-2-((2-(trifluoromethyl)pyrimidin-4-yl)amino) butanoic Acid] |
| < 50 | Cn1ncc2c(N[C@@H](CCN(CCCF)CCCCc3ccc4c(n3)NCCC4)C(=O)O)ncnc21 [Compound 136, (S)-4-((3-fluoropropyl) (4-(5,6,7,8-tetrahydro-1,8-naphthyridin-2-yl)butyl)amino)-2-((1-methyl-1H-pyrazolo[3,4-d]pyrimidin-4-yl)amino) butanoic Acid] |
| < 50 | O=C(O)[C@H](CCN(CCCCc1ccc2c(n1)NCCC2)CCOc1ccccc1)Nc1ncc(C2CC2)cn1 [Compound 117, (S)-2-((5-cyclopropylpyrimidin-2-yl)amino)-4-((2-phenoxyethyl) (4-(5,6,7,8-tetrahydro-1,8-naphthyridin-2-yl)butyl)amino) butanoic Acid] |
| > 1000 | O=C(O)[C@H](CCN(CCCCc1ccc2c(n1)NCCC2)CC(F)F)Nc1ccnc(C(F)(F)F)n1 [Compound 97, (S)-4-((2,2-difluoroethyl) (4-(5,6,7,8-tetrahydro-1,8-naphthyridin-2-yl)butyl)amino)-2-((2-(trifluoromethyl)pyrimidin-4-yl)amino) butanoic Acid] |
| 50 to 250 | O=C(O)[C@H](CCN(CCCCc1ccc2c(n1)NCCC2)CCC(F)F)Nc1ncc(C(F)(F)F)cn1 [Compound 132, (S)-4-((3,3-difluoropropyl) (4-(5,6,7,8-tetrahydro-1,8-naphthyridin-2-yl)butyl)amino)-2-((5-(trifluoromethyl)pyrimidin-2-yl)amino) butanoic Acid] |
| < 50 | O=C(O)[C@H](CCN(CCCCc1ccc2c(n1)NCCC2)CCOc1ccccc1)Nc1cc(-n2cccn2)ncn1 [Compound 91, (S)-2-((6-(1H-pyrazol-1-yl)pyrimidin-4-yl)amino)-4-((2-phenoxyethyl) (4-(5,6,7,8-tetrahydro-1,8-naphthyridin-2-yl)butyl)amino) butanoic Acid] |
| 250 to 1000 | Cc1cc(N[C@@H](CCN(CCCCc2ccc3c(n2)NCCC3)CC(F)F)C(=O)O)nc(-c2ccncc2)n1 [Compound 122, (S)-4-((2,2-difluoroethyl) (4-(5,6,7,8-tetrahydro-1,8-naphthyridin-2-yl)butyl)amino)-2-((6-methyl-2-(pyridin-4-yl)pyrimidin-4-yl)amino) butanoic Acid] |
| > 1000 | O=C(O)[C@H](CCN(CCCCc1ccc2c(n1)NCCC2)CC(F)F)Nc1ncc(C2CC2)cn1 [Compound 146, (S)-2-((5-cyclopropylpyrimidin-2-yl)amino)-4-((2,2-difluoroethyl) (4-(5,6,7,8-tetrahydro-1,8-naphthyridin-2-yl)butyl)amino) butanoic Acid] |
| > 1000 | COC[C@@H](F)CN(CCCCc1ccc2c(n1)NCCC2)CC[C@H](Nc1cc(-c2ccccc2)ncn1)C(=O)O [Compound 128, (S)-4-(((S)-2-fluoro-3-methoxypropyl) (4-(5,6,7,8-tetrahydro-1,8-naphthyridin-2-yl)butyl)amino)-2-((6-phenylpyrimidin-4-yl)amino) butanoic Acid] |
